Experimental data reported in US11458118B2, “Methods and pharmaceutical compositions for the treatment of diseases associated with reduced CFTR function” (INSERM (INSTITUT NATIONAL DE LA SANTÉ ET DE LA RECHERCHE …, priority 2017, dated 2022).
“Also recorded” adds a separate entry of the source.

What was measured:
F508del-CFTR [1] = test: Whole-cell patch-clamp of CFTR Cl- channel activity in CFBE41o-/F508del cells; format: cell-based, human; conditions: for increase of Cl- currents in treated vs untreated F508del-CFTR cells: pA/pF values at +80 mV
Method: (§1) The CFBE41o−cells purchased from Professor D. C.
Whole-cell patch-clamp recordings were obtained with the patch clamp system Port-a-Patch® (Nanion Technologies GmbH, Germany) as previously described [74;75]. Untreated or AEBSF treated cells were incubated with the external solution (140 mM NaCl, 2 mM CaCl2, 1 mM MgCl2, 10 mM Hepes, 5 mM D-glucose monohydrate, pH 7.4, 298 mOsmol) before recording. The internal solution used was 50 mM CsCl, 10 mM NaCl, 60 mM Cs-Fluoride, 20 mM EGTA, 10 mM Hepes/CsOH, and 5 mM Mg-ATP (Mg salt); pH 7.2; 285 mOsmol. CFTR activation and CFTR inhibition was done using the CFTR-activator ([…] and […] both from Sigma) and the CFTR-inhibitor ([…], Sigma) solution respectively, that were added to the external solution. Voltage steps (100 ms) from a holding potential of −80 mV, from −80 mV to +80 mV (10 mV increments) were applied. Data were captured using the Patchmaster program (Nanion Technologies GmbH, Germany) and currents normalized by membrane capacitances to remove variability due to differences in the cell sizes. Results were presented as graphic representations of I/V relationship and as bar graphs after statistical analysis of the normalized values, at +80 mV.

S1P = S1P expression by western blot in cells expressing F508del-CFTR; format: cell-based, human; conditions: 300 μM AEBSF, total cell lysates
Method: as §1
(§2) Untreated or AEBSF treated cells were rinsed twice with cold PBS. For total cell lysate preparation, cells were lysed in RIPA buffer (25 mM Tris-HCl pH 7.5, 150 mM NaCl, 1% Triton X-100, 1% Na-Deoxycholate, 0.1% SDS, 10 mM iodoacetamide, 100 μM PMSF) supplemented with fresh protease-inhibitor cocktail (Complete tablets—EDTA free, Roche, Basel, Switzerland) added extemporaneously at a final concentration of 40 μl/ml (30 min on ice). Lysates were centrifugated (15 min, 16000 g, 4° C.). For nuclear preparation, cells were washed twice with cold PBS, and lysed with buffer A (10 mM HEPES pH 7.9, 1.5 mM MgCl2, 10 mM KCl, 2 mM EDTA, 0.5 mM DTT, 0.20% NP40 and protease-inhibitor cocktail) during 15 min at 4° C. Lysates were then centrifuged (1,500×g, 2 min, 4° C.) and the supernatants (cytosolic fraction) were removed in a new tube. […] Protein concentrations were determined using Lowry's methodology with the bovine serum albumin used as a standard.
(§3) For each sample equal amount of total or nuclear proteins was loaded on a polyacrylamide gel and resolved by SDS-PAGE (10%). […] Blots were developed by enhanced chemiluminescence kit (ECL Plus, GE Healthcare) and analyzed using Chemi-Smart 5100 ECL imaging system (Vilber Lourmat). The relative intensity of each band was quantified by densitometry using BIO-1D software (Vilber Lourmat). […]

[2] = tested on: S1P-mediated cleavage of ATF6; conditions: from references [69], [78]; cited from earlier work
BiP = BiP expression by western blot in cells expressing F508del-CFTR (UPR reporter); format: cell-based, human; conditions: 300 μM AEBSF, total cell lysates
Method: as §1, §2, §3

F508del-CFTR [3] = test: Cell surface detection of CFTR in BHK cells expressing HA-tagged F508del-CFTR; format: cell-based, hamster; conditions: for presence of F508del-CFTR within membranes: after treatment of cells expressing F508del-CFTR
Method: BHK cells stably expressing WT-CFTR or F508del-CFTR were graciously given by Dr. John W. Hanrahan (McGill University). A 3-Haemaglutinin (HA)-epitope tag was inserted in the fourth extracellular loop of CFTR in these cell lines. Cells were cultured in Dulbecco's modified Eagle medium (Lonza, Switzerland) supplemented with 10% fetal bovine serum. Cells were washed three times with cold 1×PBS (Eurobio, France) plus bovine serum albumine (BSA, 0.5%) and incubated 1 h at 4° C. with an anti-HA antibody (BioLegend, USA) diluted (1/250) in 1×PBS plus 0.5% BSA. Cells were washed three times with cold 1×PBS, scraped and centrifugated (300×g, 3 min, 4° C.). Cells pellets were suspended in RIPA buffer for 30 min on ice, centrifuged (16000×g, 15 min, 4° C.) and total protein concentration of supernatant was determined using Lowry's method, using BSA as a standard. Protein G magnetic beads (Thermo Fisher Scientific, USA) were equilibrated with cold RIPA buffer. Lysates were then incubated with the magnetic beads (100 μl of magnetic beads per mg of total protein) at 4° C. during for 2 h. Beads were then rinsed three times in cold RIPA buffer and proteins were eluted with 2× sample buffer containing 2-mercaptoethanol (20 min, 37° C.). […] Membrane was blocked with 5% (w/v) dried skimmed milk in PBS (0.1%) with Tween20, probed overnight at 4° C. with the anti-HA antibody (1/500) in 5% non-fat dried milk in PBST. Membranes were further washed and incubated 1 h at RT with HRP conjugated anti-mouse antibody (1/20000; Santa Cruz Biotechnology, USA). Blots were developed by enhanced chemiluminescence kit (ECL Plus, GE Healthcare, USA) and analyzed using Chemi-Smart 5100 ECL imaging system (Vilber Lourmat, Germany).

[4] = tested on: cells expressing Wt-CFTR and F508del-CFTR; test: Cell toxicity observed in treated cells; conditions: in the used concentration (300 μM AEBSF; 10 μM PF-429242)
Method: The CFBE41o−cells purchased from Professor D. C. Gruenert (San Francisco, Calif., U.S.A.) were human bronchial epithelial cells endogenously expressing the F508del-CFTR obtained from a CF patient homozygous for the F508del mutation [51;52]. The cells used in experiments were the transduced CFBE41o−/WT also called CFBE41o−/corrected (CFBE41o−/corr) and CFBE41o−/F508del cells, and were cultured as previously described. These cells will be also called cells expressing Wt-CFTR and cells expressing F508del-CFTR in the manuscript. Cell culture media and supplements were purchased from Lonza (Basel, Switzerland) and CliniSciences (Nanterre, France). To inhibit ATF6 activation, cells were incubated with 300 μM of the serine protease inhibitor 4-(2-Aminoethyl) benzenesulfonyl fluoride hydrochloride (AEBSF) purchased from Servilab. In some experiments, ATF6 activation was blocked by the use of 10 μM PF-429242 (4-[(Diethylamino)methyl]-N-[2-(2-methoxyphenyl)ethyl]-N-(3R)-3-pyrrolidinylbenzamide, from Tocris).

ATF6 = ATF6 expression and activation by western blot (total lysates, nuclear fractions) in cells expressing F508del-CFTR; format: cell-based, human; conditions: 300 μM AEBSF
Method: as §1
Untreated or AEBSF treated cells were rinsed twice with cold PBS. For total cell lysate preparation, cells were lysed in RIPA buffer (25 mM Tris-HCl pH 7.5, 150 mM NaCl, 1% Triton X-100, 1% Na-Deoxycholate, 0.1% SDS, 10 mM iodoacetamide, 100 μM PMSF) supplemented with fresh protease-inhibitor cocktail (Complete tablets—EDTA free, Roche, Basel, Switzerland) added extemporaneously at a final concentration of 40 μl/ml (30 min on ice). Lysates were centrifugated (15 min, 16000 g, 4° C.). For nuclear preparation, cells were washed twice with cold PBS, and lysed with buffer A (10 mM HEPES pH 7.9, 1.5 mM MgCl2, 10 mM KCl, 2 mM EDTA, 0.5 mM DTT, 0.20% NP40 and protease-inhibitor cocktail) during 15 min at 4° C. Lysates were then centrifuged (1,500×g, 2 min, 4° C.) and the supernatants (cytosolic fraction) were removed in a new tube. The pellet was washed twice in buffer B (Buffer A without NP40) and lysed with buffer C (20 mM HEPES pH 7.9, 1.5 mM MgCl2, 450 mM KCl, 2 mM EDTA, 2 mM EGTA, 0.5 mM DTT, 25% Glycerol and protease-inhibitor cocktail) during 1 h vortexing 2200 rpm. Lysates were then centrifuged (14,000×g, 10 min, 4° C.) and supernatant (nuclear fraction) was removed in a new tube. Protein concentrations were determined using Lowry's methodology with the bovine serum albumin used as a standard.
For each sample equal amount of total or nuclear proteins was loaded on a polyacrylamide gel and resolved by SDS-PAGE (10%). Samples were then transferred onto a PVDF membrane (EMD Millipore, Billerica, Mass., United States). After blotting, membranes were blocked with 5% (w/v) non-fat dried skimmed milk in PBS-0.1% Tween20 (PBST). Blots were then probed overnight at 4° C. with the primary antibodies listed hereafter: Rabbit polyclonal anti-ATF6 antibody (#09-069, EMD Millipore), Rabbit polyclonal anti-S1P antibody (H-300) (#SC-20757, SantaCruz Biotechnology), Rabbit polyclonal anti-GRP78 antibody (H-129) (#SC-13968, SantaCruz Biotechnology). Membranes were further incubated 1 h at room temperature with the appropriate horseradish peroxidase (HRP) conjugated secondary antibody diluted in PBST (1/20,000): Goat anti-rabbit (#A0545, Servilab). Blots were developed by enhanced chemiluminescence kit (ECL Plus, GE Healthcare) and analyzed using Chemi-Smart 5100 ECL imaging system (Vilber Lourmat). The relative intensity of each band was quantified by densitometry using BIO-1D software (Vilber Lourmat). Each value was normalized by blue coomassie staining or the G3PDH signal obtained in the same lane on the same blot probed with mouse monoclonal antibody anti-G3PDH (#H86504M, Meridian Life Science®, Inc.) diluted in PBST (1/30,000).

[5] = tested on: cells expressing F508del-CFTR; test: 2-DE and mass spectrometry of differentially expressed proteins after treatment; format: cell-based, human; conditions: AEBSF treated vs untreated cell lysates, above 2 fold, MS identification
Method: 100 μg of total proteins from untreated or AEBSF treated cells were used for experiments. Each protein sample was first diluted in DeStreak Rehydration Solution (GE Healthcare, Chalfont St Giles, UK) which contains optimized concentrations of urea, thiourea, CHAPS, DeStreak Reagent and appropriate IPG buffer. Passive rehydration of Immobiline DryStrip gels (7 cm, pH 3-10 NL, GE Healthcare) with samples was performed during 8 hours. Once rehydration completed, Immobiline DryStrip gel are transferred in the Manifold on Ettan IPGphor 3 (GE Healthcare) for first dimension isoelectric focusing (IEF). IEF protocol used is divided in five steps: 1—Step 300 V, 200 Vhr; 2—Grad 1000 V, 300 Vhr; 3—Grad 5000 V, 4500 Vhr; 4—Step 5000V, 9000 Vhr; 5—Step 300V, 12-15 h. Second-dimension separation is performed immediately after IEF is completed. Immobiline DryStrip gels are equilibrated (15 min at room temperature) in two SDS equilibration buffers (6 M urea, 75 mM Tris-HCl pH=8.8, 30% Glycerol, 2% SDS, 0.0002% bromophenol blue+DTT or iodoacetamide) before SDS-PAGE. Electrophoresis was performed with lab-cast gels (1 mm, Bis-Tris 10%) in 1× Tris-Glycine-SDS buffer (BioRad, Hercules, Calif., USA) at 120 V for 2 h 30. […] Gel alignment, spot detection and quantification were done using the PDQuest software (PDQuest Basic-8.0.1, BioRad). […]

Structure (SMILES) | increase of Cl- currents in treated vs untreated F508del-CFTR cells (F508del-CFTR [1]; 300 μM AEBSF, 8 hours) | fold increase of the F508del-CFTR's Cl- function (F508del-CFTR [1]; 300 μM AEBSF, 8 hours, vs untreated cells) | mean cell Cl- currents (F508del-CFTR [1]; CFBE41o-/F508del cells, 300 μM AEBSF, 8 hours, at +80 mV, untreated 32.98±14.71, Wt-CFTR 118.8±21.09) | S1P expression over time in treated cells (S1P; 0.5, 1, 2, 4 or 8 hours, CFBE41o-/F508del cells, hydrochloride) | S1P expression, treated vs untreated cells for each time point (S1P; F508del-CFTR cells) | inhibition of ATF6 cleavage upon ER stress [2] | BiP expression, treated vs untreated cells for each time point (BiP) | BiP expression over time in treated cells (BiP; over time) | mature form of CFTR (C band, 170 kDa) at the cell surface (F508del-CFTR [3]; BHK cells expressing HA-tagged F508del-CFTR, anti-HA pull-down and immunoblot) | presence of F508del-CFTR within membranes (F508del-CFTR [3]) | cell toxicity [4] | ATF6 activation (cleaved form in nuclear fraction) compared to the zero time point (ATF6; nuclear fractions) | cleaved 50 kDa ATF6 in nuclear fraction, treated vs untreated cells for each time point (ATF6; nuclear fractions) | full length ATF6 expression compared to the zero time point (ATF6; total cell lysates) | full length ATF6 expression, treated vs untreated cells for each time point (ATF6; total cell lysates) | differentially expressed proteins after treatment [5] | increase of Cl- currents in treated vs untreated F508del-CFTR cells (F508del-CFTR [1]; 10 μM PF-429242, 8 hours) | mean cell Cl- currents (function of F508del-CFTR) (F508del-CFTR [1]; CFBE41o-/F508del cells, 10 μM PF-429242, 8 hours, at +80 mV, untreated 32.98±14.71)
Cl.NCCc1ccc(S(=O)(=O)F)cc1 [AEBSF, 4-(2-Aminoethyl) benzenesulfonyl fluoride hydrochloride] | +153% | 2.5 fold | 83.42±11.51 pA/pF | significance was only observed at the 2 hours time point; also recorded: no significant variation was observed over time except for the 2 hours time point | no significant difference | inhibit the proteolysis of ATF6 | Significant decreases at the 4 and 8 hours time points | significant decrease of BiP expression was observed after 4 hours of treatment | only observed after AEBSF treatment | increase the presence of F508del-CFTR within membranes | No obvious cell toxicity was observed | significant decreases at the 2 and 4 hours treatment | significant decreased expression of the 50 kDa form of ATF6, from 1 to 8 hours | significant increased expression was observed after 4 and 8 hours of treatment | significant decreases after 0.5, 1 and to 2 hours and a significant increase after 8 hours | HNRNPH1 and HNRH3 were decreased and that PDIA3 (Grp58), HSP7C, GRP75 and HSP71 were increased | – | –
CCN(CC)Cc1ccc(C(=O)N(CCc2ccccc2OC)[C@@H]2CCNC2)cc1 [PF-429242, 4-[(Diethylamino)methyl]-N-[2-(2-methoxyphenyl)ethyl]-N-(3R)-3-pyrrolidinylbenzamide] | – | – | – | – | – | efficiently blocks the S1P-mediated cleavage of ATF6 upon ER stress | – | – | – | increase the presence of F508del-CFTR within membranes | – | – | – | – | – | – | +152% | 82.67±22.26 pA/pF
